Measurements taken from ChEMBL document CHEMBL1201862, “PubChem BioAssay data set” (2004).
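Cells were grown in 96-well plates and exposed to each compound for 48 hours at five concentrations; endpoints were interpolated linearly between bracketing concentrations, or set to the highest concentration if not reached. Abbreviation: GI50, concentration required for 50% inhibition of growth.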 Activity calls are given as the source filed them. Rule as the data show it: active = GI50 up to about 1.1 µM and inactive = higher.

What was measured:
Assay in all cases: inhibition of tumour cell growth, NCI panel, 48 h
IGROV-1 = system: IGROV-1
LOX IMVI = system: LOX IMVI
PC-3 = system: PC-3
HOP-92 = system: HOP-92
OVCAR-4 = system: OVCAR-4
NCI-H226 = system: NCI-H226
SW-620 = system: SW-620
MDA-N = system: MDA-N
SK-MEL-28 = system: SK-MEL-28
SNB-19 = system: SNB-19
HCC 2998 = system: HCC 2998
Hs-578T = system: Hs-578T
HOP-62 = system: HOP-62
M14 = system: M14
SK-MEL-2 = system: SK-MEL-2
HCT-15 = system: HCT-15
OVCAR-5 = system: OVCAR-5
NCI-H522 = system: NCI-H522
U-251 = system: U-251
HL-60 = system: HL-60
SR = system: SR
EKVX = system: EKVX
SN12C = system: SN12C
HT-29 = system: HT-29
MOLT-4 = system: MOLT-4
MDA-MB-435 = system: MDA-MB-435
A549 = system: A549
UACC-257 = system: UACC-257
NCI-H460 = system: NCI-H460
NCI-H23 = system: NCI-H23
ACHN = system: ACHN
Malme-3M = system: Malme-3M
K562 = system: K562
OVCAR-3 = system: OVCAR-3
786-0 = system: 786-0
COLO 205 = system: COLO 205
NCI/ADR-RES = system: NCI/ADR-RES
KM12 = system: KM12
SF-268 = system: SF-268
OVCAR-8 = system: OVCAR-8
SK-MEL-5 = system: SK-MEL-5
RXF 393 = system: RXF 393
RPMI-8226 = system: RPMI-8226
SK-OV-3 = system: SK-OV-3
SNB-75 = system: SNB-75
SF-295 = system: SF-295
T47D = system: T47D
HCT-116 = system: HCT-116
BT-549 = system: BT-549
MDA-MB-231 = system: MDA-MB-231
CCRF-CEM = system: CCRF-CEM
A498 = system: A498
DU-145 = system: DU-145
CAKI-1 = system: CAKI-1
UO-31 = system: UO-31
UACC-62 = system: UACC-62
MCF7 = system: MCF7
SF-539 = system: SF-539
TK-10 = system: TK-10

`C=CC(C)(C)n1cc(C2=C(O)C(=O)C(c3c(CC=C(C)C)[nH]c4ccccc34)=C(O)C2=O)c2ccccc21` was tested, and the GI50 (IGROV-1) was 0.879 µM (active), the GI50 (LOX IMVI) was 0.998 µM (active) and the GI50 (PC-3) was 1.73 µM (inactive). For the same compound, the GI50 (HOP-92) was 1.46 µM (inactive), the GI50 (OVCAR-4) was 2.19 µM (inactive) and the GI50 (NCI-H226) was 1.53 µM (inactive). The GI50 (SW-620) was 3.43 µM (inactive), the GI50 (MDA-N) was 0.718 µM (active) and the GI50 (SK-MEL-28) was 0.575 µM (active). The GI50 (SNB-19) was 1.96 µM (inactive), the GI50 (HCC 2998) was 1.04 µM (active) and the GI50 (Hs-578T) was 1.43 µM (inactive). For the same compound, the GI50 (HOP-62) was 1.25 µM (inactive), the GI50 (M14) was 1.34 µM (inactive) and the GI50 (SK-MEL-2) was 1.59 µM (inactive). For the same compound, the GI50 (HCT-15) was 1.62 µM, the GI50 (OVCAR-5) was 2.89 µM (inactive) and the GI50 (NCI-H522) was 2.3 µM (inactive). The GI50 (U-251) was 1.1 µM (active), the GI50 (HL-60) was 1.86 µM (inactive) and the GI50 (SR) was 0.745 µM (active). The GI50 (EKVX) was 1.91 µM (inactive), the GI50 (SN12C) was 1.57 µM (inactive) and the GI50 (HT-29) was 2.28 µM (inactive). The GI50 (MOLT-4) was 1.6 µM (inactive), the GI50 (MDA-MB-435) was 0.711 µM (active) and the GI50 (A549) was 0.624 µM (active). The GI50 (UACC-257) was 2.88 µM (inactive), the GI50 (NCI-H460) was 1.52 µM (inactive) and the GI50 (NCI-H23) was 3.03 µM (inactive). The GI50 (ACHN) was 1.56 µM (inactive), the GI50 (Malme-3M) was 1.82 µM (inactive) and the GI50 (K562) was 0.476 µM (active). The GI50 (OVCAR-3) was 1.32 µM (inactive), the GI50 (786-0) was 2 µM (inactive) and the GI50 (COLO 205) was 1.71 µM (inactive). The GI50 (NCI/ADR-RES) was 2.47 µM (inactive), the GI50 (KM12) was 0.979 µM (active) and the GI50 (SF-268) was 0.548 µM (active). The GI50 (OVCAR-8) was 1.3 µM (inactive), the GI50 (SK-MEL-5) was 1.87 µM (inactive) and the GI50 (RXF 393) was 1.74 µM (inactive). The GI50 (RPMI-8226) was 1.64 µM (inactive), the GI50 (SK-OV-3) was 2.14 µM (inactive) and the GI50 (SNB-75) was 0.796 µM (active). For the same compound, the GI50 (SF-295) was 1.58 µM (inactive), the GI50 (T47D) was 2.47 µM (inactive) and the GI50 (HCT-116) was 1.94 µM (inactive). The GI50 (BT-549) was 0.571 µM (active), the GI50 (MDA-MB-231) was 1.81 µM (inactive) and the GI50 (CCRF-CEM) was 1.92 µM (inactive). The GI50 (A498) was 1.57 µM (inactive), the GI50 (DU-145) was 1.55 µM (inactive) and the GI50 (CAKI-1) was 2.39 µM (inactive). The GI50 (UO-31) was 0.67 µM (active) and the GI50 (UACC-62) was 0.34 µM (active).
`O=C(c1cccs1)N(C(=O)N1CCCCC1)c1ccccc1` was tested, and the GI50 (IGROV-1) was > 100 µM (inactive), the GI50 (LOX IMVI) was > 100 µM (inactive) and the GI50 (PC-3) was 52.1 µM (inactive). The GI50 (MCF7) was > 100 µM (inactive), the GI50 (NCI-H226) was > 100 µM (inactive) and the GI50 (SW-620) was > 100 µM (inactive). The GI50 (MDA-N) was > 100 µM (inactive), the GI50 (SK-MEL-28) was > 100 µM (inactive) and the GI50 (SNB-19) was > 100 µM (inactive). For the same compound, the GI50 (Hs-578T) was 84.7 µM (inactive), the GI50 (M14) was > 100 µM (inactive) and the GI50 (SK-MEL-2) was > 100 µM (inactive). For the same compound, the GI50 (HCT-15) was greater than 100 µM, the GI50 (U-251) was > 100 µM (inactive) and the GI50 (HL-60) was > 100 µM (inactive). The GI50 (SF-539) was > 100 µM (inactive), the GI50 (EKVX) was 14.8 µM (inactive) and the GI50 (SN12C) was > 100 µM (inactive). The GI50 (HT-29) was > 100 µM (inactive), the GI50 (MOLT-4) was > 100 µM (inactive) and the GI50 (MDA-MB-435) was > 100 µM (inactive). The GI50 (UACC-257) was > 100 µM (inactive), the GI50 (NCI-H23) was > 100 µM (inactive) and the GI50 (ACHN) was > 100 µM (inactive). The GI50 (Malme-3M) was 2.25 µM (inactive), the GI50 (K562) was > 100 µM (inactive) and the GI50 (OVCAR-3) was > 100 µM (inactive). The GI50 (786-0) was > 100 µM (inactive), the GI50 (COLO 205) was > 100 µM (inactive) and the GI50 (NCI/ADR-RES) was > 100 µM (inactive). For the same compound, the GI50 (KM12) was > 100 µM (inactive), the GI50 (SF-268) was > 100 µM (inactive) and the GI50 (OVCAR-8) was > 100 µM (inactive). For the same compound, the GI50 (SK-MEL-5) was > 100 µM (inactive), the GI50 (RXF 393) was 35 µM (inactive) and the GI50 (RPMI-8226) was > 100 µM (inactive). The GI50 (SK-OV-3) was > 100 µM (inactive), the GI50 (SNB-75) was 3.28 µM (inactive) and the GI50 (TK-10) was > 100 µM (inactive). For the same compound, the GI50 (SF-295) was > 100 µM (inactive), the GI50 (T47D) was > 100 µM (inactive) and the GI50 (HCT-116) was > 100 µM (inactive). The GI50 (BT-549) was > 100 µM (inactive), the GI50 (MDA-MB-231) was > 100 µM (inactive) and the GI50 (CCRF-CEM) was > 100 µM (inactive). For the same compound, the GI50 (A498) was > 100 µM (inactive), the GI50 (DU-145) was > 100 µM (inactive) and the GI50 (CAKI-1) was > 100 µM (inactive). For the same compound, the GI50 (UO-31) was 62.8 µM (inactive) and the GI50 (UACC-62) was > 100 µM (inactive).
`COc1ccc2nc3cc(Cl)ccc3c(NCCCN3CCN(CCCNc4ccc5nnn6c7ccccc7c(=O)c4c56)CC3)c2c1` was tested, and the GI50 (IGROV-1) was 0.309 µM (active), the GI50 (LOX IMVI) was 0.512 µM (active) and the GI50 (PC-3) was > 6.01 µM (inactive). The GI50 (HOP-92) was > 25 µM (inactive), the GI50 (MCF7) was 0.225 µM (active) and the GI50 (NCI-H226) was > 25 µM (inactive). The GI50 (SW-620) was 0.0458 µM (active), the GI50 (MDA-N) was 1.65 µM (inactive) and the GI50 (SK-MEL-28) was > 25 µM (inactive). For the same compound, the GI50 (SNB-19) was > 25 µM (inactive), the GI50 (HCC 2998) was 0.303 µM (active) and the GI50 (Hs-578T) was > 25 µM (inactive). The GI50 (HOP-62) was > 25 µM (inactive), the GI50 (M14) was > 25 µM (inactive) and the GI50 (SK-MEL-2) was > 25 µM (inactive). The GI50 (HCT-15) was 0.179 µM, the GI50 (OVCAR-5) was > 21.2 µM (inactive) and the GI50 (NCI-H522) was 0.391 µM (active). For the same compound, the GI50 (U-251) was 1.32 µM (inactive), the GI50 (HL-60) was 1.14 µM (inactive) and the GI50 (SF-539) was 0.21 µM (active). For the same compound, the GI50 (EKVX) was > 17 µM (inactive), the GI50 (SN12C) was 1.81 µM (inactive) and the GI50 (HT-29) was 0.0251 µM (active). For the same compound, the GI50 (MOLT-4) was 0.0743 µM (active), the GI50 (MDA-MB-435) was 3.25 µM (inactive) and the GI50 (A549) was 0.172 µM (active). For the same compound, the GI50 (UACC-257) was 2.51 µM (inactive), the GI50 (NCI-H460) was 0.0995 µM (active) and the GI50 (NCI-H23) was 19.5 µM (inactive). For the same compound, the GI50 (OVCAR-3) was > 25 µM (inactive), the GI50 (786-0) was 0.646 µM (active) and the GI50 (COLO 205) was 0.923 µM (active). The GI50 (NCI/ADR-RES) was 4.89 µM (inactive), the GI50 (KM12) was 0.277 µM (active) and the GI50 (SF-268) was > 7.36 µM (inactive). The GI50 (OVCAR-8) was 1.42 µM (inactive), the GI50 (SK-MEL-5) was > 25 µM (inactive) and the GI50 (RXF 393) was 0.948 µM (active). The GI50 (SK-OV-3) was > 25 µM (inactive), the GI50 (SNB-75) was > 25 µM (inactive) and the GI50 (TK-10) was > 10.3 µM (inactive). The GI50 (SF-295) was 2.37 µM (inactive), the GI50 (T47D) was > 25 µM (inactive) and the GI50 (HCT-116) was 0.0191 µM (active). For the same compound, the GI50 (BT-549) was 5.24 µM (inactive), the GI50 (MDA-MB-231) was 6.32 µM (inactive) and the GI50 (CCRF-CEM) was 0.17 µM (active). For the same compound, the GI50 (A498) was > 25 µM (inactive), the GI50 (DU-145) was > 25 µM (inactive) and the GI50 (CAKI-1) was > 5.62 µM (inactive). The GI50 (UO-31) was > 7.5 µM (inactive) and the GI50 (UACC-62) was > 25 µM (inactive).
